The values that follow come from US11608328B2, “Chemical probes to identify anti-mycobacterial MmpL3 inhibitors” (Creighton University, priority 2019, dated 2023).

Converted amounts (≈) assume the structure as drawn. “And” between values parts separate entries of the source, which are not always exact repeats. Identical values can stand only once. “Also recorded” adds a separate entry of the source. Like-named read-outs stand apart in the source and are kept apart here. Marks after values point to notes of the source that are not given here.

In one assay the test system is Mtb. The assay can be described thus: MIC values against Mtb used for the PMF assays. The format is cell-based, Mycobacterium tuberculosis. The settings on record: read-out: MIC values.
Assay [1] concerns MsmgΔmmpL3 expressing wild-type mmpL3tb. The assay can be described thus: microbe, parasite or virus in culture. The format is cell-based.
The subject of assay [2] is MsmgΔmmpL3 expressing mmpL3tb L189R. Format: cell-based, Mycobacterium smegmatis.
Assay [3] relates to MsmgΔmmpL3 expressing mmpL3tb G253E. The format is cell-based, Mycobacterium smegmatis.
For assay [4], the system named is MsmgΔmmpL3 expressing mmpL3tb S591I. The format is cell-based, Mycobacterium smegmatis.
Assay [5] relates to MsmgΔmmpL3 expressing mmpL3tb V684G. The format is cell-based, Mycobacterium smegmatis.
Assay [6] deals with MsmgΔmmpL3 expressing mmpL3tb V684A. Format: cell-based, Mycobacterium smegmatis.
The subject of assay [7] is MsmgΔmmpL3 expressing mmpL3tb LI89A. As to the kind of experiment: microbe, parasite or virus in culture. The format is cell-based. The settings on record: Table 2, mutant LI89A.
In assay [8] the test system is MsmgΔmmpL3 expressing mmpL3tb G253R. Format: cell-based, Mycobacterium smegmatis.
Assay [9] concerns MsmgΔmmpL3 expressing mmpL3tb G253W. Format: cell-based, Mycobacterium smegmatis.
The test system of assay [10] is MsmgΔmmpL3 expressing mmpL3tb S591W. Format: cell-based, Mycobacterium smegmatis.
The test system of assay [11] is MsmgΔmmpL3 expressing mmpL3tb S591G. The format is cell-based, Mycobacterium smegmatis.
Assay [12] has as its system MsmgΔmmpL3 expressing mmpL3tb F644C/I/L. The format is cell-based, Mycobacterium smegmatis.
In assay [13] the test system is MsmgΔmmpL3 expressing mmpL3tb F644Y. Format: cell-based, Mycobacterium smegmatis.
Assay [14] has as its system MsmgΔmmpL3 expressing mmpL3tb V684I. The format is cell-based, Mycobacterium smegmatis.
Assay [15] has as its system MsmgΔmmpL3 expressing mmpL3tb V684W. The format is cell-based, Mycobacterium smegmatis.
For assay [16], the system named is MsmgΔmmpL3 expressing mmpL3tb S288T. The format is cell-based, Mycobacterium smegmatis.
For assay [17], the system named is MsmgΔmmpL3 expressing mmpL3tb S309C. The format is cell-based, Mycobacterium smegmatis.
The subject of assay [18] is MsmgΔmmpL3 expressing mmpL3tb T311I. Format: cell-based, Mycobacterium smegmatis.
Assay [19] concerns MsmgΔmmpL3 expressing mmpL3tb Q372R. The format is cell-based, Mycobacterium smegmatis.
For assay [20], the system named is MsmgΔmmpL3 expressing mmpL3tb L567P. Format: cell-based, Mycobacterium smegmatis.
Assay [21] has as its system MsmgΔmmpL3 expressing mmpL3tb F644C. The format is cell-based, Mycobacterium smegmatis.
In the next assay the target is MmpL3tb (MmpL3^WT) (Mycobacterium tuberculosis, UniProt P9WJV5). Format: binding. The note with it: 50, 100 and 200 μM.
Chain of MmpL3tb (MmpL3^WT) (P9WJV5 whole entry): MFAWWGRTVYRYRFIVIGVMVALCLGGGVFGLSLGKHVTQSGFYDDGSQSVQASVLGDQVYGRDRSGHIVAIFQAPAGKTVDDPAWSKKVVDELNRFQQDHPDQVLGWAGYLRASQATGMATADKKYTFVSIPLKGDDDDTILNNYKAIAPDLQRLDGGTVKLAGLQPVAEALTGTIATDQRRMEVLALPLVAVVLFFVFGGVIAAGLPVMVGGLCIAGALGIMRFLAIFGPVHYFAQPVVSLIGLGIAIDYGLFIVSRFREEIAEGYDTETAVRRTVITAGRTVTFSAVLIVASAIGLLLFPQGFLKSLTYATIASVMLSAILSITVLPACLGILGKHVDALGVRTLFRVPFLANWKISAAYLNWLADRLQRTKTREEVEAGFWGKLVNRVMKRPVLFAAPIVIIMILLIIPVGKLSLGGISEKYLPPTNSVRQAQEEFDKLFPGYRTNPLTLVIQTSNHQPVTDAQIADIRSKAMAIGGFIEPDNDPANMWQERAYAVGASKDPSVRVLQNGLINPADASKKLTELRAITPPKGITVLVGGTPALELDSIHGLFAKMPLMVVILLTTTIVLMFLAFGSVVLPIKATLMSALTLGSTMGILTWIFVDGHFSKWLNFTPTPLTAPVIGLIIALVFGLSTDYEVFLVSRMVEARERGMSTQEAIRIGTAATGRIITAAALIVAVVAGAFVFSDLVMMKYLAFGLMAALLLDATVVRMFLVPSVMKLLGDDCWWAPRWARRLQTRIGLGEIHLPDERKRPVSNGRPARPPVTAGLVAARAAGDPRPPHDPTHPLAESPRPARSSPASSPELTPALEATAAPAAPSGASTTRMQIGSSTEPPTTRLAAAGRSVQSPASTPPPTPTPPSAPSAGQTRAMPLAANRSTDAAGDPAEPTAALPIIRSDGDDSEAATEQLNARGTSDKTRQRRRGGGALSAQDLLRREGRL
The test system of assay [22] is Mtb H37Rv mc^26206 inverted membrane vesicles (IMVs). The assay can be described thus: Succinate-driven proton translocation assay (ACMA) in inverted membrane vesicles. The note with it: one and four times MIC against Mtb. The format is biochemical, Mycobacterium tuberculosis. As for the experimental part:
(§1) FIG. 19A: The reactions were initiated by adding 5 mM succinate. Upon stabilization of the signal, control compounds (INH, RIF, nigericin), the MmpL3 inhibitors or diluent (water, used for INH, or 0.2% DMSO, used for all other compounds) were added and proton translocation monitored fluorimetrically. MmpL3 inhibitors and controls were used at one and four times their MIC concentrations against Mtb. Shown are the averages and standard deviations (error bars) of triplicate measurements.
(§2) Succinate-driven proton translocation assays with the fluorescent substrate ACMA were conducted as previously described (see e.g., Li et al. J. Med. Chem. 2014, 57: 3126-3139) to determine the effect of MmpL3 inhibitors on the electrochemical proton gradient of Mtb H37Rv mc^26206 and E. coli BL21(DE3) IMVs. IMVs (0.18 mg/mL membrane proteins) were pre-incubated at 37° C. in 10 mM HEPES-KOH pH 7.5, 100 mM KCl, 5 mM MgCl2 containing 2 μM ACMA and the baseline monitored for 10 min with a fluorescence spectrophotometer (Victor X5, PerkinElmer). The reaction was then initiated by adding 5 mM succinate. Upon stabilization of the signal, control compounds (INH, RIF, nigericin), MmpL3 inhibitors, or diluent (0.2% DMSO or water) were added and proton translocation monitored fluorimetrically. The excitation and emission wavelengths were 410 nm and 480 nm, respectively.

For the next assay, the system named is E. coli BL21(DE3) IMVs. Described as above. The format is biochemical. The settings on record: 2 μg/mL. As for the experimental part:
as §1, §2

A further assay has as its target purified MmpL3tb protein (Mycobacterium tuberculosis, UniProt P9WJV5). As to the kind of experiment: Surface Plasmon Resonance binding to immobilized MmpL3tb.
The target of the next assay is purified MmpL3-GFP (Mycobacterium tuberculosis, UniProt P9WJV5). The format is binding.
Chain of purified MmpL3-GFP (P9WJV5 whole entry): as above
In assay [23] the target is T1, MmpL3tb- and MmpL3tb-GFP-coated particles (Mycobacterium tuberculosis, UniProt P9WJV5).
T1 construct: His tag; made in house; host or cells: Mycobacterium smegmatis ΔmmpL3 carrying pMVGH1-mmpL3tb or pMVGH1-mmpL3tb-gfp
T1 sequence (P9WJV5 whole entry): as above
Format: binding. The note with it: 15 min at room temperature; various probe concentrations.

Where [24] appears, read: Mycolicibacterium smegmatis, Tables 1A-1B, MmpL3 WT, read-out: MIC.

Chain of purified MmpL3tb protein (P9WJV5 whole entry): as above

With `N#CC(C#N)=NNc1cccc(Cl)c1` [CCCP], in the assay with Mtb (against Mtb, FIG. 8 legend), the MIC is reported as 6.25 µM (≈ 1.28 µg/mL).

Consider `O=C(O)c1cn(C2CC2)c2cc(N3CCNCC3)c(F)cc2c1=O` [CIP, ciprofloxacin], for which the MIC in assay [1] (Mycolicibacterium smegmatis), in assay [2], in assay [3], in assay [4], in [5] and in assay [6] was 0.31 µg/mL (≈ 0.936 µM) each time. In addition, the MIC turned out to be 0.31 µg/mL (≈ 0.936 µM) in assay [7] (Mycolicibacterium smegmatis, read-out: MIC); 0.31 µg/mL (≈ 0.936 µM) in assay [8]; 0.31 µg/mL (≈ 0.936 µM) in assay [9]; 0.31 µg/mL (≈ 0.936 µM) in [10]; 0.31 µg/mL (≈ 0.936 µM) in assay [11]; 0.31 µg/mL (≈ 0.936 µM) in assay [12]. Also, the MIC in assay [13], in assay [14] and in assay [15] was 0.31 µg/mL (≈ 0.936 µM) throughout.

As for `C[C@@H]1[C@H]2C[C@@H](C[C@H]1NC(=O)c1cc3ccccc3[nH]1)C2(C)C` [North 4], the MIC in assay [1] (setting [24]) is 0.16 µg/mL (≈ 0.54 µM); in [2] it was 1.28^a μg/mL; in assay [3], 1.28^a μg/mL; in assay [16], 1.28^a μg/mL; in [17], 1.28^a μg/mL; in assay [18], 0.08 µg/mL (≈ 0.27 µM). The MIC in assay [19] was 0.32 µg/mL (≈ 1.08 µM); in [20] it was 0.64^b μg/mL; in assay [4] it was 0.64^b μg/mL; in assay [21] it was 0.32 µg/mL (≈ 1.08 µM); in assay [5], 1.28^a μg/mL; in assay [6] it was 0.32 µg/mL (≈ 1.08 µM). Moreover, on MmpL3tb (MmpL3^WT), the BLI binding signal result is listed as “consistently bound to MmpL3tb with the strongest signals”.

Turning to `Cc1cc(C)c2cc(C(=O)NC3CCCCCCC3)[nH]c2c1` [North 21], the MIC is 0.05 µg/mL (≈ 0.168 µM) in assay [1] (setting [24]); 0.2^b μg/mL in assay [2]; 0.2^b μg/mL in assay [3]; 0.2^b μg/mL in [16]; 0.2^b μg/mL in assay [17]; 0.05 µg/mL (≈ 0.168 µM) in assay [18]. Also, the MIC in assay [19] was 0.05 µg/mL (≈ 0.168 µM); in assay [20], 0.1 µg/mL (≈ 0.335 µM); in [4], 0.1 µg/mL (≈ 0.335 µM); in [21] it was 0.05 µg/mL (≈ 0.168 µM); in [5], 0.2^b μg/mL; in assay [6], 0.05 µg/mL (≈ 0.168 µM). For the same molecule, at MmpL3tb (MmpL3^WT), the BLI binding signal result is listed as “consistently bound to MmpL3tb with the strongest signals”.

Turning to `CO[C@H]1/C=C/O[C@@]2(C)Oc3c(C)c(O)c4c(O)c(c(/C=N/N5CCN(C)CC5)c(O)c4c3C2=O)NC(=O)/C(C)=C\C=C\[C@H](C)[C@H](O)[C@@H](C)[C@@H](O)[C@@H](C)[C@H](OC(C)=O)[C@@H]1C` [RIF, rifampicin], in the assay with Mtb (Mycobacterium tuberculosis), the MIC was found to be 0.19 µM (≈ 0.156 µg/mL).

With `CO[C@@H]1C[C@@H](C[C@H]2CC[C@H](C)[C@H]([C@@H](C)C(=O)O)O2)O[C@]2(O[C@](C)([C@H]3CC[C@@](C)([C@@H]4O[C@@H]([C@H]5O[C@@](O)(CO)[C@H](C)C[C@@H]5C)C[C@@H]4C)O3)C[C@H]2C)[C@@H]1C` [nigericin], the MIC with Mtb (Mycobacterium tuberculosis, against Mtb, FIG. 8 legend) was found to be 4.31 µM (≈ 3.12 µg/mL). Besides, in assay [22], the “effect on ΔpH of Mtb IMVs” value is reported as “increase of fluorescence intensity indicative of ΔpH collapse”. Besides, in the assay on E. coli BL21(DE3) IMVs, the “effect on ΔpH of E. coli IMVs” value is given as “collapse the ΔpH of E. coli IMVs”.

Regarding AU1235, the MIC is 0.31 µg/mL in assay [1] (Table 2, MmpL3 WT); 0.39 µg/mL in assay [1] (Tables 1A-1B, MmpL3 WT); 1.56^b μg/mL and 1.25 μg/mL in assay [2]; 3.13^a μg/mL and 5 μg/mL in [3]; 12.5^a μg/mL in [16]; 3.13^b μg/mL in [17]. Also, the MIC was 1.56^b μg/mL in assay [18]; 0.78 µg/mL in assay [19]; 0.78 µg/mL in assay [20]; 3.13^a μg/mL and 2.5 μg/mL in assay [4]; 0.78 µg/mL in [21]; 3.13^a μg/mL and 2.5 μg/mL in [5]. Further, the MIC was 1.56^b μg/mL and 1.25 μg/mL in assay [6]; 0.62^c μg/mL in [7]; 0.62^c μg/mL in assay [8]; 2.5-5 ^ μg/mL in [9]; 0.62^c μg/mL in assay [10]; 0.31-0.62^c μg/mL in assay [11]. For the same molecule, the MIC in [12] was 0.62 µg/mL; in [13], 0.15^c μg/mL; in assay [14], 0.31^c μg/mL; in assay [15] it was 0.62 µg/mL; with Mtb (against Mtb, FIG. 8 legend) it was 0.48 µM. In addition, on purified MmpL3tb protein, the “Model (best-fit kinetic model)” value is given as “Two-state reaction”. On purified MmpL3tb protein, the SPR binding signal entry is reported as “strong SPR signals”. For the same molecule, at purified MmpL3tb protein, the ka1 turned out to be 1858.1 M⁻¹ s⁻¹. The ka2 on purified MmpL3tb protein is given as 0.019 1/RU*s. For the same molecule, the kd1 at purified MmpL3tb protein was found to be 0.39 s⁻¹. The molecule also returned a kd2 on purified MmpL3tb protein of 0.0316 s⁻¹. Also, the Kd at purified MmpL3tb protein (read-out: KD1) is 132 µM. In addition, the BLI binding signal result on MmpL3tb (MmpL3^WT) is “weak binding signal”. Besides, the “displacement of Compound 2 from purified MmpL3tb” value at purified MmpL3-GFP is recorded as “clear concentration-dependent displacement”. For the same molecule, in assay [22], the “effect on ΔpH of Mtb IMVs” value is listed as “increase of fluorescence intensity indicative of ΔpH collapse; also recorded: also collapsed ΔpH in this assay when used at 4-fold MIC concentration”.

With “Methyl 4-(3-((3s,5s,7s)-adamantan-1-yl)ureido)-2-((1-(3-(3-(5,5-difluoro-7,9-dimethyl-5H-5λ^4,6λ^4-dipyrrolo[1,2-c:2′,1′-f][1,3,2]diazaborinin-3-yl)propanamido)propyl)-1H-1,2,3-triazol-4-yl)methoxy)benzoate [Compound 4]”, the MIC in assay [1] (Tables 1A-1B, MmpL3 WT) turned out to be 64 µg/mL. The “probe binding to coated particles (MFI)” value in assay [23] is given as “concentration-dependent binding”.

“N-cyclooctyl-5-((1-(3-(3-(5,5-difluoro-7,9-dimethyl-5H-5λ^4,6λ^4-dipyrrolo[1,2-c:2′,1′-f][1,3,2]diazaborinin-3-yl)propanamido)propyl)-1H-1,2,3-triazol-4-yl)methoxy)-1H-indole-2-carboxamide [Compound 3]”: the MIC in assay [1] (Tables 1A-1B, MmpL3 WT) was found to be 32 µg/mL.
